Experimental data from patent US4079134A, “7-Acylamino-3-(5-sulfomethyl-1,3,4-thiadiazol-2-y lthiomethyl)-3-cephem-4-carboxylic acids” (SmithKline Corporation, priority 1976, dated 1978).
Converted amounts (≈) assume the structure as drawn. Counter-ions that a name gives are not always drawn. Like-named read-outs stand apart in the source and are kept apart here.

Columns and labels:
Kleb. pneumo. = assay: ED50 in infected mice; format: in vivo; settings: two determinations; for ED50: Mus musculus, read-out: ED50 in mice against Kleb. pneumo.
Procedure: (s.c.); 25 and 10 mg/kg against E. coli as well as 8.7 and 8.5 mg/kg against Kleb. pneumo. (p.o.).

E. coli = assay: ED50 in infected mice; format: in vivo; settings: two determinations; for ED50: Escherichia coli, read-out: ED50 in mice against E. coli
Kleb. pneumo. SK 1200 = assay: MIC in vitro; format: cell-based; settings: read-out: minimum inhibitory concentration (MIC)
Procedure: (§1) The compounds of Formula I have antibacterial activity against either Gram positive or Gram negative bacteria with minimum inhibitory concentrations (MIC's) in vitro from 0.4 to 200 μg/ml. Test results for 7-D-mandelamido-3-(5-sulfomethyl-1,3,4-thiadiazol-2-ylthiomethyl)-3-cephem-4-carboxylic acid, disodium salt, tetrahydrate (A) are: […]

Proteus mirabilis PN-444 = assay: MIC in vitro; format: cell-based
Procedure: as §1

Proteus morgani 179 = assay: MIC in vitro; format: cell-based; settings: read-out: minimum inhibitory concentration (MIC)
Procedure: as §1

Kleb. pneumo. SK 4200 = assay: MIC in vitro; format: cell-based; settings: read-out: minimum inhibitory concentration (MIC)
Procedure: as §1

[1] = test system: S. aureus villaluz SK 70390; assay: MIC in vitro; format: cell-based; settings: Staphylococcus aureus, read-out: minimum inhibitory concentration (MIC)
Procedure: as §1

E. coli SK 12140 = assay: MIC in vitro; format: cell-based; settings: Escherichia coli
Procedure: as §1

E. coli HH 33779 = assay: MIC in vitro; format: cell-based; settings: Escherichia coli
Procedure: as §1

[2] = test system: Serratia marc. ATCC 13880; assay: MIC in vitro; format: cell-based; settings: ATCC13880, read-out: minimum inhibitory concentration (MIC)
Procedure: as §1

Pseudo. aeru. HH 63 = assay: MIC in vitro; format: cell-based; settings: read-out: minimum inhibitory concentration (MIC)
Procedure: as §1

Salmonella ATCC 12176 = assay: MIC in vitro; format: cell-based; settings: ATCC12176, read-out: minimum inhibitory concentration (MIC)
Procedure: as §1

[3] = test system: Entero. aerog. ATCC 13048; assay: MIC in vitro; format: cell-based; settings: read-out: minimum inhibitory concentration (MIC)
Procedure: as §1

Entero. cloacae HH 31254 = assay: MIC in vitro; format: cell-based; settings: Enterobacter cloacae, HH31254, read-out: minimum inhibitory concentration (MIC)
Procedure: as §1

S. aureus HH 127 = assay: MIC in vitro; format: cell-based; settings: Staphylococcus aureus
Procedure: as §1

S. aureus SK 23390 = assay: MIC in vitro; format: cell-based; settings: Staphylococcus aureus
Procedure: as §1

Strep. Faecalis HH 34358 = assay: MIC in vitro; format: cell-based; settings: Enterococcus faecalis, read-out: minimum inhibitory concentration (MIC)
Procedure: as §1

[4] = PN444, in vitro, Proteus mirabilis PN-444, read-out: minimum inhibitory concentration (MIC)
[5] = in vitro, S. aureus villaluz SK 70390
[6] = SK12140, in vitro, E. coli SK 12140, read-out: minimum inhibitory concentration (MIC)
[7] = HH33779, in vitro, E. coli HH 33779, read-out: minimum inhibitory concentration (MIC)
[8] = HH127, in vitro, S. aureus HH 127, read-out: minimum inhibitory concentration (MIC)
[9] = SK23390, in vitro, S. aureus SK 23390, read-out: minimum inhibitory concentration (MIC)

In the case of `O=C(O)C1=C(CSc2nnc(CS(=O)(=O)O)s2)CS[C@@H]2[C@H](NC(=O)[C@H](O)c3ccccc3)C(=O)N12` [Compound A, 7-D-mandelamido-3-(5-sulfomethyl-1,3,4-thiadiazol-2-ylthiomethyl)-3-cephem-4-carboxylic acid, disodium salt, tetrahydrate], the ED50 (Kleb. pneumo.; po) is reported as 8.7 mg/kg, the ED50 (Kleb. pneumo.; sc) is reported as 0.78 mg/kg and the “ED50 in mice against Kleb. pneumo.” value (Kleb. pneumo.; p.o.) is reported as 8.5 mg/kg. The “ED50 in mice against Kleb. pneumo.” value (Kleb. pneumo.; s.c.) was 0.62 mg/kg, the ED50 (E. coli; sc) was 0.3 mg/kg and the “ED50 in mice against E. coli” value (E. coli; s.c.) was 0.39 mg/kg. For the same compound, the MIC (Kleb. pneumo. SK 1200) was 0.4 µg/mL, the MIC (Proteus mirabilis PN-444; [4]) was 0.4 µg/mL and the MIC (Proteus morgani 179; in vitro, Proteus morgani 179) was 1.6 µg/mL. For the same compound, the MIC (Kleb. pneumo. SK 4200) was 0.4 µg/mL, the MIC [1, 5] was 200 µg/mL and the MIC (E. coli SK 12140; [6]) was 0.4 µg/mL. For the same compound, the MIC (E. coli HH 33779; [7]) was 0.8 µg/mL, the MIC [2] was 25 µg/mL and the MIC (Pseudo. aeru. HH 63) was greater than 200 µg/mL. For the same compound, the MIC (Salmonella ATCC 12176) was 0.4 µg/mL, the MIC [3] was 1.6 µg/mL and the MIC (Entero. cloacae HH 31254) was 0.4 µg/mL. For the same compound, the MIC (S. aureus HH 127; [8]) was 1.6 µg/mL, the MIC (S. aureus SK 23390; [9]) was 0.4 µg/mL and the MIC (Strep. Faecalis HH 34358) was 25 µg/mL.

In the case of `CC(=O)OCC1=C(C(=O)O)N2C(=O)[C@@H](NC(=O)Cc3cccs3)[C@H]2SC1` [Cephalothin], the MIC (Kleb. pneumo. SK 1200) is reported as 1.6 µg/mL (≈ 4.04 µM), the MIC (Proteus mirabilis PN-444; Proteus mirabilis, PN444, read-out: minimum inhibitory concentration (MIC)) is reported as 0.8 µg/mL (≈ 2.02 µM) and the MIC (Proteus morgani 179) is reported as greater than 200 µg/mL. For the same compound, the MIC (Kleb. pneumo. SK 4200) was 1.6 µg/mL (≈ 4.04 µM), the MIC [1] was 50 µg/mL (≈ 126 µM) and the MIC (E. coli SK 12140; SK12140, read-out: minimum inhibitory concentration (MIC)) was 3.1 µg/mL (≈ 7.82 µM). The MIC (E. coli HH 33779; HH33779, read-out: minimum inhibitory concentration (MIC)) was 6.3 µg/mL (≈ 15.9 µM), the MIC [2] was greater than 200 µg/mL and the MIC (Pseudo. aeru. HH 63) was greater than 200 µg/mL. It also gave an MIC (Salmonella ATCC 12176) of 1.6 µg/mL (≈ 4.04 µM), an MIC [3] of 12.5 µg/mL (≈ 31.5 µM) and an MIC (Entero. cloacae HH 31254) of 6.3 µg/mL (≈ 15.9 µM). For the same compound, the MIC (S. aureus HH 127; HH127, read-out: minimum inhibitory concentration (MIC)) was 0.4 µg/mL (≈ 1.01 µM), the MIC (S. aureus SK 23390; SK23390, read-out: minimum inhibitory concentration (MIC)) was 0.1 µg/mL (≈ 0.252 µM) and the MIC (Strep. Faecalis HH 34358) was 6.3 µg/mL (≈ 15.9 µM).

With `Cc1nnc(SCC2=C(C(=O)O)N3C(=O)[C@@H](NC(=O)Cn4cnnn4)[C@H]3SC2)s1` [Cefazolin] the MIC (Kleb. pneumo. SK 1200) was 0.8 µg/mL (≈ 1.76 µM), the MIC (Proteus mirabilis PN-444; [4]) was 3.1 µg/mL (≈ 6.82 µM) and the MIC (Proteus morgani 179; in vitro, Proteus morgani 179) was greater than 200 µg/mL. It also gave an MIC (Kleb. pneumo. SK 4200) of 1.6 µg/mL (≈ 3.52 µM), an MIC [1, 5] of 100 µg/mL (≈ 220 µM) and an MIC (E. coli SK 12140; [6]) of 0.8 µg/mL (≈ 1.76 µM). For the same compound, the MIC (E. coli HH 33779; [7]) was 1.6 µg/mL (≈ 3.52 µM), the MIC [2] was greater than 200 µg/mL and the MIC (Pseudo. aeru. HH 63) was greater than 200 µg/mL. The MIC (Salmonella ATCC 12176) was 0.8 µg/mL (≈ 1.76 µM), the MIC [3] was 1.6 µg/mL (≈ 3.52 µM) and the MIC (Entero. cloacae HH 31254) was 0.8 µg/mL (≈ 1.76 µM). It also gave an MIC (S. aureus HH 127; [8]) of 0.4 µg/mL (≈ 0.88 µM), an MIC (S. aureus SK 23390; [9]) of 0.2 µg/mL (≈ 0.44 µM) and an MIC (Strep. Faecalis HH 34358) of 6.3 µg/mL (≈ 13.9 µM).

In the case of `CC1=C(C(=O)O)N2C(=O)[C@@H](NC(=O)[C@H](N)c3ccccc3)[C@H]2SC1` [Cephalexin], the ED50 (Kleb. pneumo.; po) is reported as 19 mg/kg, the ED50 (Kleb. pneumo.; sc) is reported as 16.5 mg/kg and the “ED50 in mice against Kleb. pneumo.” value (Kleb. pneumo.; p.o.) is reported as 10 mg/kg. The ED50 (E. coli; po) was 21.5 mg/kg, the ED50 (E. coli; sc) was 12.5 mg/kg and the “ED50 in mice against E. coli” value (E. coli; p.o.) was 18 mg/kg.
